Measurements from patent US12397059B2, “Compounds and methods for the treatment and prevention of fibrotic disease states and cancer” (Purdue Research Foundation, priority 2019, dated 2025).
“Also recorded” adds a separate entry of the source.

Experiments:
[1] = tested on: M2-induced THP-1 macrophages; assay: Secreted CCL18 and IL-1β in THP-1 supernatants by ELISA; format: cell-based, human
Procedure: FIGS. 6A-6D show graphical data representative of various marker levels measured from M2-induced THP-1 macrophages treated with different concentrations of drugs for 48 hours (FIGS. 6A and 6B) or for 2 hours, then displaced with fresh medium and cultured for the remaining 46 hours (FIGS. 6C and 6D). In both cases, cell supernatants were collected and secreted CCL18 protein and IL-1β was detected by ELISA.
Further, to ensure that the above mRNA analyses accurately reflected the levels of profibrotic cytokines produced by IL-4, IL-6 plus IL-13 stimulated THP-1 cells, the concentrations of CCL18 and IL-1β polypeptides in the THP-1 supernatants were quantitated by ELISA assay.
(§1) CCL18 and IL-1β were quantified in induced THP-1 cell supernatants using a human DuoSet ELISA Development System (R&D Systems Europe, Abingdon, UK; #DY394-05) and an IL-1 beta Human ELISA Kit (Thermo Fisher Scientific, Waltham, MA; #BMS224-2) as described by manufactures.

[2] = tested on: BM-induced experimental pulmonary fibrosis in mice; assay: BM-induced pulmonary fibrosis: markers in bronchoalveolar lavage cells/fluid (qPCR, ELISA); format: in vivo
Procedure: Fresh water and folate-deficient diet were freely available.
Bronchoalveolar lavage fluid (BALF) was then analyzed to determine how the targeted TLR7 agonist works. BALF samples were centrifuged at 1500 rpm for 5 min at 4° C. and the supernatant was aliquoted and stored at −80° C. for cytokine/chemokine analyses. Cell pellets were resuspended and cultured in pre-warmed RPMI 1640 medium for 2 hours and then washed 3× with pre-warmed PBS prior to harvesting for qPCR assay. The right lung was then tied with a nylon string and used for subsequent analysis of hydroxyproline content. The left lung was inflated with 1 ml PBS using the inserted syringe and transferred to 10% formalin solution for subsequent histological analyses.
as §1, with “manufactures. BALF samples were analyzed for mouse IFN-γ using ELISA MAX™ Deluxe (Biolegend, San Diego, CA; #430804).” for “manufactures.”

[3] = Stability during incubation in culture media; format: physicochemical; conditions: 37° C. in the culture media, 48 hours
Procedure: Indeed, Compound 1B retained the original structure after 48 hours incubation.

[4] = tested on: THP-1 cells polarized to M2-like macrophages; assay: Reprogramming of M2-like THP-1 macrophages, marker gene analysis by qPCR; format: cell-based, human
Procedure: THP-1 cells were seeded into 96-well plates at a density of 60,000 cells/well. Cells were differentiated into unpolarized macrophages by 48 hours incubation with 200 nM PMA followed by 24 hours incubation in fresh RPMI medium. […] Cultures were maintained at 37° C. in a humidified 5% CO2 incubator.
Total RNA was isolated from 1×10^5 —2×10^5 macrophages using a Quick-RNA™ MicroPrep kit (Zymo Research, Irvine, CA) according to the manufacturer-recommended protocol. […] IL-6, CXCL10, IFNα, IFN-γ and CD86 were used as markers for an M1 phenotype, while CCL18, CD206, CD163 and Arg1 were employed as markers for the M2 phenotype. IL-1β, PDGFβ, MMP9 and TIMP 3 were measured as indicators of a profibrotic phenotype. IRAK-4 was used as an indicator of TLR7 stimulation. To control for specificity of the amplification products, a melting curve analysis was performed. […] Each sample was analyzed independently in triplicate for each marker.
Primarily, human monocytic (THP-1) cells were induced to the M2-like phenotype using the methods and materials previously described. In particular, THP-1 cells were seeded into 96-well plates at a density of 60,000 cells/well. Cells were differentiated into unpolarized macrophages by 48 h incubation with 200 nM PMA followed by 24 hours incubation in fresh RPMI medium. The resulting macrophages were polarized to an M2-like phenotype by incubation with 20 ng/ml IL-4, 20 ng/ml IL-13, and 5 ng/mL IL-6 for 48 h. Cultures were maintained at 37° C. in a humidified 5% CO2 incubator.
In addition to the nonconjugated TLR7 agonist, conjugated compounds of the present disclosure were likewise evaluated. […] The cells were subsequently harvested for gene analysis by qPCR and the relative expression of CCL18 (FIG. 14A), CD206 (FIG. 14B), and IL-1β (FIG. 14C) analyzed.

[5] = tested on: M2-induced human monocyte-derived macrophages; assay: Reprogramming of M2-induced human monocyte-derived macrophages with FA-glucosamine competition; format: cell-based; conditions: 100 nM, 2 hours then 46 hours without drug
Procedure: Changes in both sets of cytokines were inhibited by blockade of unoccupied folate receptors with excess FA-glucosamine (2+46 h, competition).

[6] = incubated continuously for 48 hours, ELISA
[7] = BALF cells day 21, i.v. every other day from day 10
[8] = 2 hours with drug, then drug-free medium
[9] = incubated 2 hours, harvested at once or after a further 46 hours

SMILES: CCCCc1nc2c(N)nc3ccccc3c2n1CC(C)(C)OC(=O)OCCSSCC(NC(=O)CCC(NC(=O)c1ccc(NCc2cnc3nc(N)[nH]c(=O)c3n2)cc1)C(=O)O)C(=O)O (stereo not drawn) [Compound 1B]
- reduction of secreted CCL18 and IL-1β, comparison of the two agonists ([1]; drug exposure limited to 2 hours, then 46 hours fresh medium): superior
- secreted CCL18 protein [1, 6]: reductions
- secreted IL-1β [1, 6]: reductions
- CD86 transcripts (antifibrotic marker, qPCR) ([2]; BALF cells day 21): upregulated; also recorded: elevated
- IRAK-4 ([2]; BALF cells day 21): upregulated; also recorded: upregulation
- Arg1 (profibrotic marker, qPCR) [2, 7]: downregulated; also recorded: suppressed
- MMP9 (profibrotic marker, qPCR) [2, 7]: downregulated; also recorded: suppressed
- TIMP 3 (profibrotic marker, qPCR) [2, 7]: downregulated; also recorded: suppressed
- IFN-γ concentration (ELISA of lavage fluid) ([2]; day 21): upregulated; also recorded: elevated
- total number of BALF cells ([2]; different doses): decreased in a dose-dependent manner
- stability during incubation [3]: remained stable
- TNFα induction [4, 8]: dramatically improved
- potency relative to Compound 1A [4, 8]: superior potency relative to Compound 1A
- marker changes (FIGS. 3A-3F) compared with nontargeted TLR7 agonist ([4]; M2-induced THP-1, 48 hours incubation): same qualitative changes were observed, only the magnitude of the impact of Compound 1B was somewhat reduced
- PDGFα ([4]; data not shown): no significant difference
- M1-like phenotype (CD86 mRNA, TNFα levels) [4, 9]: upregulated
- profibrotic/M2-type markers (CCL18, CD206, IL-1β, PDGFβ mRNA) [4, 9]: downregulated profibrotic/M2-type markers of macrophages more than Compound 1A
- downregulation of biomarkers in presence of excess FA-glucosamine (competitor) [5]: blocked
